The IC50 is the concentration that inhibits the measured activity by half.

Test [1] concerns the target T1, GPR6 (Homo sapiens, UniProt P46095).
T1 construct: expressed in transfected cells; host or cells: CHO cells
Nature of the test: GPR6 antagonist functional cAMP assay (LANCE Ultra cAMP TR-FRET, CHO cells stably expressing GPR6). It counts as cell-based. In a few lines: (§1)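 Compounds, at 0.1% final DMSO, acted on the cells for 45 minutes at 37 °C in the presence of the phosphodiesterase inhibitor Ro 20-1724 (150 μM). After lysis and detection, plates were shaken 1 h at room temperature and emission at 665 nm was recorded. Normalized data gave IC50 values.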
(In general: Changes in cAMP serve as a functional read-out for many G protein-coupled receptors.)

Test [2] concerns the target T2, GPR3 (Homo sapiens, UniProt P46089).
T2 construct: expressed in transfected cells; host or cells: CHO cells
Nature of the test: GPR3 antagonist functional cAMP assay (LANCE Ultra cAMP TR-FRET, CHO cells stably expressing GPR3). It counts as cell-based. In a few lines:
as §1

The mark [3] stands for this setting: CHO cells stably expressing GPR6, cAMP assay (Example 24).
The mark [4] stands for this setting: CHO cells stably expressing GPR3, cAMP assay (Example 24).
[5] abbreviates: CHO cells stably expressing GPR6, cAMP assay.
[6] abbreviates: CHO cells stably expressing GPR3, cAMP assay.
The mark [7] stands for this setting: procedure as described in Example 24.

T1 sequence (P46095 whole entry): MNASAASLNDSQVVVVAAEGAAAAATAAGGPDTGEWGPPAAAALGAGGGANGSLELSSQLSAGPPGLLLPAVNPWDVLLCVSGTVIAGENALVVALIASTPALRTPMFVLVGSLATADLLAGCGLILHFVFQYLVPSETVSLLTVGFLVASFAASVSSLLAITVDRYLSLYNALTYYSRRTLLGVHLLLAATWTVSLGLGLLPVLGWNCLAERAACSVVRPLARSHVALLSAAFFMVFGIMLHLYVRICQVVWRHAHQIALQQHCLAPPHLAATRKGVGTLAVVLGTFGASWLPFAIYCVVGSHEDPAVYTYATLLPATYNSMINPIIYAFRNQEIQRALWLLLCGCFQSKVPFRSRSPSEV
T2 sequence (P46089 whole entry, species assumed): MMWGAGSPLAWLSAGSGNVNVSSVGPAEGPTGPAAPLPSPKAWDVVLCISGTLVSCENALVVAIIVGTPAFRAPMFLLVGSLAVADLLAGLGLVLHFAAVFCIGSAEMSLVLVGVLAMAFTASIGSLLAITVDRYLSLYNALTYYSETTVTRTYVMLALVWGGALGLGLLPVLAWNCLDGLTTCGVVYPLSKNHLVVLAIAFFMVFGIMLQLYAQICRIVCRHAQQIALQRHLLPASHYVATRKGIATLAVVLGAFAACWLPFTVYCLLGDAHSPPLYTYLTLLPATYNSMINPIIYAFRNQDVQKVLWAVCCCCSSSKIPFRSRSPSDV

With `COc1ncc(-c2nc3c(nc2N2CCC(Oc4ccc(F)cc4F)CC2)CCN(C(C)=O)C3)cc1F` [Compound 160, 1-{2-[4-(2,4-difluorophenoxy)piperidin-1-yl]-3-(5-fluoro-6-methoxypyridin-3-yl)-5H,6H,7H,8H-pyrido[3,4-b]pyrazin-6-yl}ethan-1-one], the 50% inhibitory concentration (IC50) in test [1] (setting [3]) was 100 to 1000 nM; in test [2] (setting [4]), 1000 to 30000 nM.
`CC(C)(O)C(O)c1cc2nc(N3CCC(Oc4ccc(F)cc4F)CC3)c(-c3cnn(C4CC4)c3)nc2cn1` (stereo not shown) [Compound 469, 1-[3-(1-cyclopropyl-1H-pyrazol-4-yl)-2-[4-(2,4-difluorophenoxy)piperidin-1-yl]pyrido[3,4-b]pyrazin-7-yl]-2-methylpropane-1,2-diol]: the half-maximal inhibitory concentration (IC50) was 100 to 1000 nM in test [1] (setting [3]) and 1000 to 30000 nM in test [2] (setting [4]).
Regarding `CC(C)(O)C(=O)c1cc2nc(N3CCN(Cc4ccc(F)cc4F)CC3)c(-c3cnn(CF)c3)nc2cn1` [Compound 568, 1-(2-{4-[(2,4-difluorophenyl)methyl]-1-piperazinyl}-3-[1-(fluoromethyl)-4-pyrazolyl]-1,4,6-triaza-7-naphthyl)-2-hydroxy-2-methyl-1-propanone], the half-maximal inhibitory concentration (IC50) in test [1] (setting [5]) is 100 to 1000 nM; in test [2] (setting [6]) it was 1000 to 30000 nM.
In the case of `CC(C)(O)[C@@H](O)c1cc2nc(N3CCC(=Cc4ccc(F)cc4F)CC3)c(-c3cnn(CF)c3)nc2cn1` (single isomer, unassigned) [Compound 785], the values for the half-inhibitory concentration (IC50) in test [1] (procedure of Example 24) and in test [2] (procedure of Example 24) were less than 100 nM and 1000 to 30000 nM, respectively.
With `CC(=O)N1CCc2nc(N3CCC(Oc4ccc(F)cc4F)CC3)c(C3CC3CO)nc2C1` (stereo not shown) [Compound 489, 1-(2-(4-(2,4-difluorophenoxy)piperidin-1-yl)-3-(2-(hydroxymethyl)cyclopropyl)-7,8-dihydropyrido[3,4-b]pyrazin-6(5H)-yl)ethan-1-one], the concentration for half-maximal inhibition (IC50) in test [1] (setting [5]) was in the range of 100 to 1000 nM; in test [2] (setting [6]), 1000 to 30000 nM.
Consider `CC(=O)N1CCc2nc(N3CCC(Oc4ccc(F)cc4F)CC3)c(-c3cccc(C(F)(F)F)n3)nc2C1` [Compound 50, 1-{2-[4-(2,4-difluorophenoxy)piperidin-1-yl]-3-[6-(trifluoromethyl)pyridin-2-yl]-5H,6H,7H,8H-pyrido[3,4-b]pyrazin-6-yl}ethan-1-one], for which the IC50 in test [1] (setting [7]) lay within 100 to 1000 nM; in test [2] (setting [7]), 1000 to 30000 nM.
For `CC(=O)N1CCc2nc(N3CCC(C(=O)NCc4ccc(F)cc4F)C3)c(-c3cnn(C)c3)nc2C1` (stereo not shown) [Compound 386, 1-[6-acetyl-3-(1-methyl-1H-pyrazol-4-yl)-5H,6H,7H,8H-pyrido[3,4-b]pyrazin-2-yl]-N-[(2,4-difluorophenyl)methyl] pyrrolidine-3-carboxamide], the IC50 was not below 30000 nM in test [1] (setting [3]) and 1000 to 30000 nM in test [2] (setting [4]).
For the compound `CC(C)n1cc(-c2nc3cnc(C(O)C(C)(C)O)cc3nc2N2CCN(Cc3ccc(F)cc3F)CC2)cn1` (stereo not shown) [Compound 298, 1-(2-{4-[(2,4-difluorophenyl)methyl]piperazin-1-yl}-3-[1-(propan-2-yl)-1H-pyrazol-4-yl]pyrido[3,4-b]pyrazin-7-yl)-2-methylpropane-1,2-diol], the IC50 lay in the range of 100 to 1000 nM in test [1] (procedure of Example 24) and 1000 to 30000 nM in test [2] (procedure of Example 24).
`CC(C)(O)[C@@](C)(O)c1cc2nc(N3CCC(Oc4ccc(F)cc4F)CC3)c(-c3cnn(C4CC4)c3)nc2cn1` (single isomer, unassigned) [Compound 665]: the IC50 in test [1] (procedure of Example 24) lay within 100 to 1000 nM; in test [2] (procedure of Example 24), 1000 to 30000 nM.
As for `CC(C)(O)C(=O)c1cc2nc(N3CCC(Oc4ccc(F)cc4F)CC3)c(-c3cnn(C4CC4)c3)nc2cn1` [Compound 625, 1-{3-(1-cyclopropyl-4-pyrazolyl)-2-[4-(2,4-difluorophenoxy)-1-piperidyl]-1,4,6-triaza-7-naphthyl}-2-hydroxy-2-methyl-1-propanone], the IC50 in test [1] (procedure of Example 24) lay in the range of 100 to 1000 nM; in test [2] (procedure of Example 24) it was 1000 to 30000 nM.
For `COCn1cc(-c2nc3c(nc2N2CCC(Oc4ccc(F)cc4F)CC2)CCN(C(C)=O)C3)cn1` [Compound 14, 1-{2-[4-(2,4-difluorophenoxy)piperidin-1-yl]-3-[1-(methoxymethyl)-1H-pyrazol-4-yl]-5H,6H,7H,8H-pyrido[3,4-b]pyrazin-6-yl}ethan-1-one], the IC50 was in the range of 100 to 1000 nM in test [1] (setting [7]) and 1000 to 30000 nM in test [2] (setting [7]).
In the case of `CC(=O)N1CCc2nc(N3CCN(Cc4ccnn4C)CC3)c(-c3cnn(C)c3)nc2C1` [Compound 525, 1-[3-(1-methyl-4-pyrazolyl)-2-{4-[(1-methyl-5-pyrazolyl)methyl]-1-piperazinyl}-5,6,7,8-tetrahydro-1,4,6-triaza-6-naphthyl]-1-ethanone], the IC50 in test [1] (setting [5]) and in test [2] (setting [6]) was not below 30000 nM each time.
Take `CCn1cc(-c2nc3c(nc2N2CCC(Oc4ccc(F)cc4F)CC2)CCN(C(=O)C2CC(F)(F)CN2C)C3)cn1` (stereo not shown) [Compound 483, (4,4-difluoro-1-methylpyrrolidin-2-yl)(2-(4-(2,4-difluorophenoxy)piperidin-1-yl)-3-(1-ethyl-1H-pyrazol-4-yl)-7,8-dihydropyrido[3,4-b]pyrazin-6(5H)-yl)methanone]: the IC50 in test [1] (setting [3]) was 100 to 1000 nM; in test [2] (setting [4]), 1000 to 30000 nM.
As for `CC(=O)N1CCc2nc(N3CCN(Cc4ccc(C(F)(F)F)cc4)CC3)c(-c3cnn(C)c3)nc2C1` [Compound 384, 1-[3-(1-methyl-1H-pyrazol-4-yl)-2-(4-{[4-(trifluoromethyl)phenyl]methyl}piperazin-1-yl)-5H,6H,7H,8H-pyrido[3,4-b]pyrazin-6-yl]ethan-1-one], the IC50 in test [1] (setting [3]) and in test [2] (setting [4]) was 1000 to 30000 nM in each case.
With `CC(=O)N1CCc2nc(N3CCC(Oc4ccc(F)cc4F)CC3)c(-c3cccc(Cl)n3)nc2C1` [Compound 137, 1-(3-(6-chloropyridin-2-yl)-2-(4-(2,4-difluorophenoxy)piperidin-1-yl)-7,8-dihydropyrido[3,4-b]pyrazin-6(5H)-yl)ethanone], the results for the half-inhibitory concentration (IC50) in test [1] (setting [3]) and in test [2] (setting [4]) were 100 to 1000 nM and 1000 to 30000 nM, respectively.
`COC1CCC(c2nc3c(nc2N2CCC(Oc4ccc(F)cc4F)CC2)CCN(C(C)=O)C3)CC1` (stereo not shown) [Compound 373, 1-(2-(4-(2,4-difluorophenoxy)piperidin-1-yl)-3-(4-methoxycyclohexyl)-7,8-dihydropyrido[3,4-b]pyrazin-6(5H)-yl)ethan-1-one]: the results for the half-maximal inhibitory concentration (IC50) in test [1] (procedure of Example 24) and in test [2] (procedure of Example 24) were 100 to 1000 nM and 1000 to 30000 nM, respectively.
`CC(=O)N1CC=C(c2nc3c(nc2N2CCC(Oc4ccc(F)cc4F)CC2)CCN(C(C)=O)C3)C1` [Compound 72, 1-(3-{6-acetyl-2-[4-(2,4-difluorophenoxy)piperidin-1-yl]-5H,6H,7H,8H-pyrido[3,4-b]pyrazin-3-yl}-2,5-dihydro-1H-pyrrol-1-yl)ethan-1-one]: the IC50 in test [1] (setting [3]) and in test [2] (setting [4]) was 1000 to 30000 nM in each case.
In the case of `CC(C)(O)C(C)(O)c1cc2nc(N3CCC(Oc4ccc(F)cc4F)CC3)c(-c3cnn(CF)c3)nc2cn1` (stereo not shown) [Compound 636, 2-{2-[4-(2,4-difluorophenoxy)-1-piperidyl]-3-[1-(fluoromethyl)-4-pyrazolyl]-1,4,6-triaza-7-naphthyl}-3-methyl-2,3-butanediol], the results for the IC50 in test [1] (procedure of Example 24) and in test [2] (procedure of Example 24) were 100 to 1000 nM and 1000 to 30000 nM, respectively.
Consider `Cn1cc(-c2nc3c(C#N)nccc3nc2N2CCC(Oc3ccc(F)cc3F)CC2)cn1` [Compound 409, 2-[4-(2,4-difluorophenoxy)piperidin-1-yl]-3-(1-methyl-1H-pyrazol-4-yl)pyrido[3,4-b]pyrazine-5-carbonitrile], for which the concentration for half-maximal inhibition (IC50) in test [1] (setting [3]) and in test [2] (setting [4]) was 100 to 1000 nM in each case.
Regarding `CCn1cc(-c2nc3cnc(C(=O)C(C)(C)O)cc3nc2N2CCN(Cc3ccc(F)cc3F)CC2)cn1` [Compound 624, 1-(2-{4-[(2,4-difluorophenyl)methyl]-1-piperazinyl}-3-(1-ethyl-4-pyrazolyl)-1,4,6-triaza-7-naphthyl)-2-hydroxy-2-methyl-1-propanone], the values for the IC50 in test [1] (procedure of Example 24) and in test [2] (procedure of Example 24) were 100 to 1000 nM and 1000 to 30000 nM, respectively.
`COC1CCC(c2nc3c(nc2N2CCC(Oc4ccc(F)cc4F)CC2)CCN(C(C)=O)C3)C1` (stereo not shown) [Compound 279, 1-{2-[4-(2,4-difluorophenoxy)piperidin-1-yl]-3-(3-methoxycyclopentyl)-5H,6H,7H,8H-pyrido[3,4-b]pyrazin-6-yl}ethan-1-one]: the IC50 in test [1] (procedure of Example 24) and in test [2] (procedure of Example 24) was 1000 to 30000 nM each time.
For the compound `Cn1cc(-c2nc3cnc([C@@H](O)C(C)(C)O)cc3nc2N2CCC(Oc3ccc(F)cc3F)CC2)cn1` (single isomer, unassigned) [Compound 379, (Rel-R)-1-(2-(4-(2,4-difluorophenoxy)piperidin-1-yl)-3-(1-methyl-1H-pyrazol-4-yl)pyrido[3,4-b]pyrazin-7-yl)-2-methylpropane-1,2-diol], the figures for the IC50 in test [1] (setting [3]) and in test [2] (setting [4]) were 100 to 1000 nM and 1000 to 30000 nM, respectively.
The like results for `O=C(C1COC1)N1CCc2nc(N3CCC(Oc4ccc(F)cc4F)CC3)c(-c3cn[nH]c3)nc2C1` [Compound 184, 4-(2,4-difluorophenoxy)-1-[6-(oxetane-3-carbonyl)-3-(1H-pyrazol-4-yl)-5H,6H,7H,8H-pyrido[3,4-b]pyrazin-2-yl]piperidine] were, in that order, less than 100 nM and 1000 to 30000 nM.
As to `Fc1ccc(Cl)cc1CN1CCN(c2nc3cnccc3nc2-c2ncc[nH]2)CC1` [Compound 42], the IC50 was in the range of 1000 to 30000 nM in test [1] (setting [7]) and 100 to 1000 nM in test [2] (setting [7]).
For the compound `CC(=O)N1CCc2nc(N3CCC(Oc4ccc(F)cc4F)CC3)c(-c3ccnc(N)n3)nc2C1` [Compound 475, 1-[3-(2-aminopyrimidin-4-yl)-2-[4-(2,4-difluorophenoxy)piperidin-1-yl]-5H,6H,7H,8H-pyrido[3,4-b]pyrazin-6-yl]ethan-1-one], the IC50 is less than 100 nM in test [1] (setting [3]) and 1000 to 30000 nM in test [2] (setting [4]).
On to `COc1cccc(OC2CCN(c3nc4c(nc3-c3cnn(C)c3)CN(C(C)=O)CC4)CC2)c1F` [Compound 427, 1-{2-[4-(2-fluoro-3-methoxyphenoxy)piperidin-1-yl]-3-(1-methyl-1H-pyrazol-4-yl)-5H,6H,7H,8H-pyrido[3,4-b]pyrazin-6-yl}ethan-1-one], for which the 50% inhibitory concentration (IC50) in test [1] (setting [3]) and in test [2] (setting [4]) was 1000 to 30000 nM each time.

The values are drawn from US20260042755A1, “GPR6 INVERSE AGONISTS” (MapLight Therapeutics, Inc., priority 2022, published 2026).
